Publication PMC5345905 (Journal of the American Chemical Society, 2017)

System: Bacillus subtilis 168
Test: minimal inhibitory concentration
Format: cell-based
Conditions: purified unique compounds, quantitative MIC

thiocillin [WT]
MIC: 0.5 µg/mL
